Results on eight compounds are retold here after US20150126573A1, “METHODS AND PHARMACEUTICAL COMPOSITIONS FOR PREVENTION OR TREATMENT OF CHRONIC OBSTRUCTIVE PULMONARY DISEASE” (INSERM (INSTITUT NATIONAL DE LA SANTE ET DE LA RECHERCHE …, priority 2012, published 2015).

The subject of one series is Primary lung fibroblasts. Description: Single 24 h exposure of non-senescent lung fibroblasts to PGE2 (accelerated senescence and related inflammation). In kind it is cell-based, human. Conditions: for PGE2-induced SA-β gal and p21 expression: control fibroblasts (NS-C and S-C), antagonists 10 μM; for increase in IL-6, CX3CL1, FGF2, VEGF, MMP2 and TIMP2 induced by PGE2: fibroblasts, EP2 and EP4 antagonists. From the text:
Primary lung fibroblasts were isolated by the explant technique (Normand J and Karasek M A. In Vitro Cell Dev Biol Anim 1995; 31:447-455) from lung specimens obtained for lung tumor resection from 25 patients with COPD and 35 subjects without clinical, morphological or functional signs of COPD (controls) (Table 1). Controls were divided into non-smoker and smoker groups (NS-C, n=10 and S-C, n=25 respectively). Smoking status (current smokers or ex-smokers, defined by smoking cessation after more than 1 year (Lapperre T S et al., Respir Res 2007; 8:85; Savale L et al. Am J Respir Crit Care Med 2009), was considered in the analysis of the different results (Table 2). Classification of COPD severity was based on the 2003 Global initiative for chronic obstructive lung disease (GOLD) criteria (Rabe K F et al., Am J Respir Crit Care Med 2007; 176:532-555). Informed consent was obtained from all patients and the study was approved by the “Comite de Protection des Personnes Ile de France IX”.
(§1) Fibroblasts were exposed to either PGE2 (0.5 to 50 ng ml^−1) or conditioned medium (CM) collected from fibroblasts incubated for 24 h. In different experiments cells were treated with inhibitors of COXs, agonists or antagonists of prostaglandin receptors EP2 and EP4, the antioxidant N-acetylcysteine (NAC), or the inhibitor of p53 transcriptional effects pifithriñ-α.
(§2) Senescence was characterized by measuring cumulative population doubling levels (PDLs) (Holz O et al., Eur Respir J 2004; 24:575-579), telomere length (Savale L et al., Am J Respir Crit Care Med 2009), senescence associated β-galactosidase activity (SA β-Gal) (Dimri G P. Cancer Cell 2005; 7:505-512), and the expression of phospho (serine 15)-p53 p16, p21, and caspase 3 by western blot, immunofluorecence and RT-qPCR analysis. The level of 29 soluble factors in conditioned medium was quantified using the Luminex technology (Millipore, Molscheim, France).

The next series deals with fibroblasts. In words: Cellular reactive oxygen species production (DCFH-DA assay) and oxidant signalling in PGE2-exposed fibroblasts. In kind it is cell-based, human. Conditions: for increase in ROS, and SA β-gal and p21 expression induced by PGE2: 24 h pre-treatment of fibroblasts. As for the experimental part:
as §1
(§3) PGE2 was quantified by using the Prostaglandin E2 monoclonal EIA kit (Bertin Pharma, Montigny le Bretonneux, France). PGE2 receptors and enzymes involved in PGE2 synthesis were quantified by RT-qPCR. Cellular reactive oxygen species production was quantified by the DCFH-DA assay (Carter W et al., J Leukoc Biol 1994; 55:253-258).

Series [1] relates to lung mRNA expression of senescence markers and cytokines. In words: Intratracheal instillation of PGE2 in mice, lung mRNA expression of senescence markers and cytokines. It is filed as in vivo. As for the experimental part: Male 8-week-old mice of C57BL/6 background and p53−/− animals (kindly provided by Tyler Jacks, MIT, Cambridge) were intratracheally instilled with either PGE2 (1 ng·ml^−1) or vehicle (DMSO 1/10000). Instilled volume was 50 μl. Twenty-four and 48 h after instillation mice were sacrificed and analysis of lung mRNA expression of senescence markers and cytokines were performed. Studies were conducted in compliance with INSERM guidelines regarding the fair treatment of animals.

In the next series the test system is PGE2. Description: PGE2 quantification in fibroblast culture/conditioned medium (Prostaglandin E2 monoclonal EIA kit). In kind it is cell-based, human. Conditions: for reduction of the levels of PGE2 in CM: treatment of fibroblasts with COX inhibitors. As for the experimental part: as §1, §3
A further series has as its system S-C and COPD fibroblasts. Description: Replicative senescence of S-C and COPD fibroblasts during successive passages (repeated PGE2 exposure or COX inhibitors). In kind it is cell-based, human. As for the experimental part:
as §1, §2
Finally, the inventors investigated if endogenous PGE2 was involved in replicative senescence.

A further series has as its system human dermal fibroblasts. Conditions: Yang H H et al., Biogerontology 2011; cited from earlier work.
In series [2] the test system is Non-senescent fibroblasts from S-C and COPD patients (target fibroblasts). Description: Paracrine senescence: target fibroblasts incubated 24 h with conditioned medium (CM) from senescent fibroblasts. In kind it is cell-based, human. As for the experimental part:
as §1, §2
Non-senescent fibroblasts from S-C and COPD patients (further called target fibroblasts) were incubated 24 h with conditioned medium (CM) from cells of the respective groups obtained at non-senescent and senescent passages. […] Both S-C and COPD CM obtained at senescent passage increased the percentage SA-β gal, phospho (serine 15)-p53, p21, and p16 protein expression, as well as IL-6, IL-8, MCP-1 and FGF-2 mRNA expression in target cells.

Where [3] appears, read: COPD fibroblasts, both antagonists (EP2 + EP4) used simultaneously, versus one antagonist.
The mark [4] stands for this setting: COPD fibroblasts, one antagonist alone (10 μM), PGE2 10 ng·ml−1.
Where [5] appears, read: wild type mice, single intra-tracheal instillation.
The mark [6] stands for this setting: repeated exposures to PGE2 at 1 ng·ml−1, passage 3 to 9.
Setting [7] is: repeated exposures to PGE2 at 1 ng·ml−1, passage 3 to 9, S-C and COPD fibroblasts, greater in COPD.
Setting [8] is: pre-treatment of target fibroblasts.

Where only a bound is given, the exact number is not on record here.

In the case of `CC(C)Oc1ccc2c(=O)c3cc(C(=O)O)ccc3oc2c1` [AH6809], the “PGE2-induced SA β-gal and p21 expression” value in the series on Primary lung fibroblasts (setting [3]) is given as “small but significant higher effect”; with Primary lung fibroblasts (setting [4]), “significantly reduced”. Further, in the series on Primary lung fibroblasts (PGE2 10 ng·ml−1), the “PGE2-induced SA-β gal and p21 expression” value is on record as “only the simultaneous application of both antagonists decreased”. Moreover, the “increase in IL-6, CX3CL1, FGF2, VEGF, MMP2 and TIMP2 induced by PGE2” value in the series on Primary lung fibroblasts is on record as “both antagonists were needed to suppress”.

In the case of `O=C1CC[C@H](/C=C/[C@@H](O)Cc2ccccc2)N1CCCCCCc1nn[nH]n1` [CAY10598], the “SA β-gal and p21 expression (agonists, no PGE2)” value with Primary lung fibroblasts (COPD and control fibroblasts, both agonists (EP2 + EP4) used simultaneously, versus one agonist) is recorded as “small but significant higher effect”. Also, the “SA β-gal and p21 expression (agonist alone, no PGE2)” value with Primary lung fibroblasts (COPD and control fibroblasts, one agonist) is given as “mimicked PGE2 effects”.

As for `CCOc1c2c(c(OCC)c3ccccc13)C(=O)N(c1ccc(CC(=O)NS(=O)(=O)c3ccccc3)cc1)C2` [GW627368X], the “PGE2-induced SA β-gal and p21 expression” value with Primary lung fibroblasts (setting [3]) is listed as “small but significant higher effect”; in the series with Primary lung fibroblasts (setting [4]) it was “significantly reduced”. Besides, the “PGE2-induced SA-β gal and p21 expression” value in the series with Primary lung fibroblasts (PGE2 10 ng·ml−1) is on record as “only the simultaneous application of both antagonists decreased”. For the same compound, in the series with Primary lung fibroblasts, the “increase in IL-6, CX3CL1, FGF2, VEGF, MMP2 and TIMP2 induced by PGE2” value is recorded as “both antagonists were needed to suppress”.

`CC(=O)N[C@@H](CS)C(=O)O` [N-acetyl-cysteine]: the “increase in ROS, and SA β-gal and p21 expression induced by PGE2” value in the series on fibroblasts is “significantly reduced”.

For `CCCCC[C@H](O)/C=C/[C@H]1[C@H](O)CC(=O)[C@@H]1C/C=C\CCCC(=O)O` [PGE2, prostaglandin E2], in the series on Primary lung fibroblasts (fibroblasts of the three groups of patients after PGE2), the “cleaved caspase-3 (and phosphatidyl serine residues)” value is reported as “absence”. Also, the “percentage of cells expressing SA β-gal, p21 and p16 protein” value in the series with Primary lung fibroblasts (non-senescent NS-C, S-C and COPD fibroblasts, 24 h incubation with PGE2 (0.5 to 50 ng ml−1), higher in COPD) is given as “dose-response increase”. For the same compound, the “levels of IL-6, CX3CL1, VEGF, FGF2, MMP-2 and TIMP-2 in cell culture supernatant” value in the series on Primary lung fibroblasts (non-senescent fibroblasts, 24 h incubation with PGE2, higher in COPD) is “increase”. For the same compound, the “COX2 mRNA levels” value in series [1] (mice, at 48 h) is reported as “increased”. In addition, in series [1] (p53−/− mice), the “induction of p21 and inflammatory mediators” value was “not observed”. In series [1] (setting [5]), the “p16 expression in lung” value is on record as “no change” and the “pulmonary expression of inflammatory mediators (IL-6, CX3CL1, FGF2, VEGF, MMP2)” value is “induced”. The “pulmonary expression of p53 and p21” value in series [1] (wild type mice, single intra-tracheal instillation, at 24 h and 48 h respectively) is given as “induced”. In addition, the “activation of the DNA damage-activated transcription factor ATM” value in the series on fibroblasts (PGE2-exposed COPD cells, single exposure) was “No activation”. For the same compound, the “concentration of intracellular ROS and expression of the oxidant-sensitive protein HO-1” value with fibroblasts (fibroblasts incubated with PGE2) was “increased in a dose-dependent manner only in fibroblasts from COPD patients”. For the same compound, the “synthesis of endogenous PGE2” value with PGE2 (fibroblasts exposed to exogenous PGE2) was “induced”. In addition, the “expression of phosphorylated-ATM” value in the series on S-C and COPD fibroblasts (COPD fibroblasts, repeated exposure to PGE2) is “enhanced”. Also, in the series with S-C and COPD fibroblasts (setting [6]), the “expression of MCP3” value is “not modified” and the “reduction in telomeres length” value is “did not modify”. In the series with S-C and COPD fibroblasts (setting [7]), the “induction of SA-β gal, p21, p16, COX2 and HO-1 expression, and levels of IL-6, IL-8, GRO, VEGF and CX3CL” value is “enhanced”; the “senescence-associated cumulative PDL” value was “further reduced”. For the same compound, the “concentration from which the effect of PGE2 (aggravated replicative senescence) was observed” value in the series on human dermal fibroblasts was not below 5 µM.

As to `Cc1ccc(-c2cc(C(F)(F)F)nn2-c2ccc(S(N)(=O)=O)cc2)cc1` [celecoxib], the “reduction of the levels of PGE2 in CM” value in the series with PGE2 was 60%.

Consider `COc1ccc2c(c1)c(CC(=O)O)c(C)n2C(=O)c1ccc(Cl)cc1` [indomethacin], for which the “increase in ROS, and SA β-gal and p21 expression induced by PGE2” value with fibroblasts was “significantly reduced”. Also, in the series on PGE2, the “reduction of the levels of PGE2 in CM” value was determined as 60%. In addition, in series [2] (target cells incubated with CM from fibroblasts treated with COX inhibitor), the “percentage of SA β-gal positive cells and p21 protein expression” value is reported as “parallel significant reduction”.

Regarding `Cc1ccc(C(=O)Cn2c3c(sc2=N)CCCC3)cc1` [pifithrin-α], the “PGE2-induced SA β-gal and p21 expression” value in the series with Primary lung fibroblasts (COPD and control fibroblasts) was “completely prevented”. In the series with Primary lung fibroblasts (control and COPD fibroblasts), the “increase in IL6, CX3CL1, MMP-2 and TIMP-2 levels induced by PGE2” value is given as “completely prevented”; the “increase in p16 induced by PGE2” value is “without modification”. Besides, in series [2] (setting [8]), the “increase in FGF-2 mRNA expression induced by CM” value is “not modified”; the “increase in IL-6, IL-8 and MCP-1 mRNA expression induced by CM” value is on record as “suppressed”; the “increase in SA β-gal positive cells and induction of p21 protein by S-C and COPD senescent CM” value is “suppressed”.
